The nature of assay [1]: cells.
The target in assay [2] is T1, Oxysterols receptor LXR-beta (Homo sapiens, UniProt P55055).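 Further: Cell-based luminescence dose-response assay of agonist activity at LXR, run as a confirmatory counterscreen to a daf-12 agonist screen; HEK293 cells with Gal4-LXR fusion and GAL4-driven luciferase reporter; agonist potency from rising luciferase signal of a Gal4-LXR reporter.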
T1 sequence (P55055 whole entry): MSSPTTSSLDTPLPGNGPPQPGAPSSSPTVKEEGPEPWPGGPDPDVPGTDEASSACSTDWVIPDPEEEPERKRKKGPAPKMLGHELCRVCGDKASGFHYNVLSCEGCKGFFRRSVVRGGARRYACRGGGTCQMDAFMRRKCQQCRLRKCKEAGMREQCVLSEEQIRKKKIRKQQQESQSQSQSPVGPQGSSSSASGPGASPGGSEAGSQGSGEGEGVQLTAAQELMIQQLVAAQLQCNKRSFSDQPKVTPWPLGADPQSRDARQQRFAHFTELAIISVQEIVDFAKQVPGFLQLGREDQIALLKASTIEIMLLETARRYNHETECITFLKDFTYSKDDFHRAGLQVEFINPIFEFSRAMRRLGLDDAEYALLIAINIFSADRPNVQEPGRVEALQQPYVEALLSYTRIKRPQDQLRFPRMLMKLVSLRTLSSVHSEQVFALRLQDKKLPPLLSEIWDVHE
Format: functional, cell-based.

The nature of assay [3]: viability loss in CEM21 cells – cell-based, plate reader, dry powder, cytotoxicity control, dose response (AID 687026). Format: functional.
A short description of assay [4]: inhibition of Env-driven cell fusion – HIV entry, plate reader, dry powder, dose response (AID 687023). Type of assay: functional, cell-based.
The target of assay [5] is NAD-dependent protein deacylase sirtuin-5, mitochondrial (Homo sapiens, UniProt Q9NXA8). In words: blockers of sirtuin-5 peptide desuccinylation – biochemical, fluorescence imaging, cherry-pick, set 6, dose response (AID 720597).
Chain of NAD-dependent protein deacylase sirtuin-5, mitochondrial (Q9NXA8 whole entry, the tested form may be a part): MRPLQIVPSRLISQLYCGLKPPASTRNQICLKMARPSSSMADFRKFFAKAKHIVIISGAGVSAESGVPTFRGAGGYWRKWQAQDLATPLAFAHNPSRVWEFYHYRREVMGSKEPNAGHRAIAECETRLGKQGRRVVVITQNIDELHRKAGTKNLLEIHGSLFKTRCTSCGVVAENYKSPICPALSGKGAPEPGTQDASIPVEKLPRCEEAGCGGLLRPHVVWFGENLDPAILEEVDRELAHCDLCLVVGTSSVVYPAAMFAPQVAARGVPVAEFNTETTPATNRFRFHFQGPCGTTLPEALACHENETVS
In assay [6] the target is E3 ubiquitin-protein ligase UHRF1 (Homo sapiens, UniProt Q96T88). The experiment in a line: Counterscreen for inhibitors of 5-meCpG-binding domain protein 2 (MBD2): TRFRET-based biochemical high throughput dose response assay to identify inhibitors of binding of ubiquitin-like with PHD and ring finger domains 1 (UHRF1) to methylated oligonucleotide.
Chain of E3 ubiquitin-protein ligase UHRF1 (Q96T88 whole entry, the tested form may be a part): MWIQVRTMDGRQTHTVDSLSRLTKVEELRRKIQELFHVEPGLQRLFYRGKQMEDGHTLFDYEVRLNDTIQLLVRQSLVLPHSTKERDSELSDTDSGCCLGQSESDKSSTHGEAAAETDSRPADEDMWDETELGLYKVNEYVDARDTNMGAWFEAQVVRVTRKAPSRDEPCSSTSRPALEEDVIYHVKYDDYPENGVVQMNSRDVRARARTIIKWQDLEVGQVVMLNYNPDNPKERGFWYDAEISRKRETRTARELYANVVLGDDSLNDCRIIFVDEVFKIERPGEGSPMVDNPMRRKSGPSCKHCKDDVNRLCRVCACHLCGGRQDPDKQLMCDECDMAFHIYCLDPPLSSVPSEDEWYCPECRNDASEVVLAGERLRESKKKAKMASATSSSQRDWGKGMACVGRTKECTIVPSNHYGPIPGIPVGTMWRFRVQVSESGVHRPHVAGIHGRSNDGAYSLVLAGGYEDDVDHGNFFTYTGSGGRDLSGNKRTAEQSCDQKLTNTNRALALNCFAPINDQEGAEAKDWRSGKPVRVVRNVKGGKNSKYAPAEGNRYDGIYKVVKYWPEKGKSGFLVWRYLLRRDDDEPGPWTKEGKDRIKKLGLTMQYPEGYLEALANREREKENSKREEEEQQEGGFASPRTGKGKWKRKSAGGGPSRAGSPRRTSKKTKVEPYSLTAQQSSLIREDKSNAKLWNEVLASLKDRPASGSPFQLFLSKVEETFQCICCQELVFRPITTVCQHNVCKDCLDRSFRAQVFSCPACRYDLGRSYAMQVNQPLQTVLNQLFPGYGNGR
The nature of assay [7]: inhibitors of non-replicating M. tuberculosis, dose response, luciferase, dry powder (AID 651620). Type of assay: functional. Particulars: Mycobacterium tuberculosis.
Assay [8] can be described thus: inhibitors of non-replicating M. tuberculosis, dose response, luciferase, dry powder (AID 651619). The conditions noted are these: Mycobacterium tuberculosis. Type of assay: functional.
Assay [9] deals with G-protein coupled receptor 183 (Homo sapiens, UniProt P32249). In words: SAR confirmation of small molecule antagonists of the EBI2 receptor via a luminescent beta-arrestin assa. Format: functional.
Chain of G-protein coupled receptor 183 (P32249 whole entry): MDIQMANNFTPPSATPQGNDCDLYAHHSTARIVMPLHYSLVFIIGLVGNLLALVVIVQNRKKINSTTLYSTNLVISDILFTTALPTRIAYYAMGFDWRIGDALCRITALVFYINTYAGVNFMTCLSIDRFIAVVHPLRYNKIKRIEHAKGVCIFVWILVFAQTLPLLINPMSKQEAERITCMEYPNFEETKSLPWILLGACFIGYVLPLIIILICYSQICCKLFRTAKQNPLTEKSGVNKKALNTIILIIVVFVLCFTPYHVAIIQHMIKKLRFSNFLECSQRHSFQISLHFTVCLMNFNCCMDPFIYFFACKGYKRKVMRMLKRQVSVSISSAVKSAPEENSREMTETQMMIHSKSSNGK
The nature of assay [10]: toxicity to A549 lung cells – cell-based, plate reader, dry powder, set 6, cytotoxicity control, dose response (AID 743312). Type of assay: functional.
A short description of assay [11]: cells. The conditions noted are these: HEK293.

“And” between values parts separate entries of the source, which are not always exact repeats. Equal values may be shown once. The source made the active and inactive calls. Where only a bound is given, the exact number is not on record here.

As usually defined, the EC50 is the midpoint of the concentration-response curve. As for `N#Cc1ccsc1NC(=O)CSc1nncs1`, the EC50 (in “cells [1]”; in assay [2]) was > 67.5 µM (inactive) in each case.

A word on the AC50: it is the concentration giving half of the maximal activity seen. Turning to `CCOc1ccc(S(=O)(=O)NCc2ccncc2)cc1Cl`, the AC50 was > 70 µM (inactive) in assay [3]; 92.5 nM (active) and 125 nM (active) in [4].

Regarding `C[C@@H]1CCCCO[C@H](CN(C)Cc2ccccc2)[C@H](C)CN([C@H](C)CO)C(=O)c2cc(NC(=O)CCC(F)(F)F)ccc2O1`, the AC50 in [5] was > 30 µM (inactive).

By IC50 is commonly meant the concentration that inhibits the measured activity by half. On to `CC(=O)Nc1sc2c(c1-c1nc3ccccc3s1)CCN(C)C2`, for which the IC50 in [6] is 25.7 µM (inactive).

As usually defined, the IC90 is the point of the concentration-response curve where the effect stands at 90%. Turning to `c1ccc(-c2nnc(SCc3cccnc3)o2)cc1`, the IC90 in assay [7] and in [8] was 8 µM (active) each time.

As to `O=C(/C=C/c1ccc(Br)cc1)N1CCN(Cc2cc(F)cc(F)c2)CC1`, the IC50 in assay [9] is 0.00221 µM (active).

For the compound `Cc1cccc(OCCn2c(=S)[nH]c3ccc(C(F)(F)F)cc32)c1`, the AC50 in [10] is 15.6 µM (active); in the assay “cells [11]” it was 35.9 µM (active).

The record behind these values is ChEMBL document CHEMBL1201862, “PubChem BioAssay data set” (2004).
